# Reference: PubChem BioAssay (NCI)
# Values joined by “and” are separate entries in the source; they are usually repeats but may differ in a detail not shown here. Identical values can stand only once.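 1) Cells in 96-well plates. 2) Compound, 48 h, 5 concentrations. 3) Linear interpolation between surrounding doses. 4) Unreached endpoint = highest concentration. GI50 is the concentration that inhibits growth by half. TGI: concentration producing complete growth inhibition.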 Numbered stars: 1 amine (or outer) side, 2 acyl side, 3 side chain; on linkers, the order of the positions; unused ones are H or OH. Bridge positions count the residues as written; N and C are the ends. Where a SMILES comes first, the peptide text is derived from it. Square brackets hold non-standard residues; d marks the D form. Peptide text beside a SMILES is read from it. I, II: the chains in the order shown. The star is where a group is joined. Actinocin(1to9) = Cc1c2oc3c(C)ccc(C(=O)[*:2])c3nc-2c(C(=O)[*:1])c(N)c1=O; Fmoc = O=C(OCC1c2ccccc2-c2ccccc21)*; NMeV = CN[CH](C(=O)O)C(C)C; Boc = CC(C)(C)OC(=O)*; Sar = CNCC(=O)O
# What was measured:
# Experiment in all cases: inhibition of tumour cell growth, NCI panel, 48 h
# MOLT-4 leukemia = tested on: MOLT-4 leukemia
# 786-0 renal = tested on: 786-0 renal
# SF-268 CNS = tested on: SF-268 CNS
# KM12 colon = tested on: KM12 colon
# LOX IMVI melanoma = tested on: LOX IMVI melanoma
# A498 renal = tested on: A498 renal
# CAKI-1 renal = tested on: CAKI-1 renal
# NCI-H23 lung = tested on: NCI-H23 lung
# UACC-257 melanoma = tested on: UACC-257 melanoma
# IGROV1 ovarian = tested on: IGROV1 ovarian
Structure (SMILES),TGI (MOLT-4 leukemia),TGI (786-0 renal),TGI (SF-268 CNS) [µM],TGI (KM12 colon) [µM],TGI (LOX IMVI melanoma) [µM],TGI (A498 renal) [µM],TGI (CAKI-1 renal) [µM],TGI (NCI-H23 lung),TGI (UACC-257 melanoma) [µM],TGI (IGROV1 ovarian) [µM],GI50 (LOX IMVI melanoma) [µM],GI50 (UACC-257 melanoma) [µM],GI50 (MOLT-4 leukemia) [µM],GI50 (KM12 colon) [µM],GI50 (CAKI-1 renal) [µM],GI50 (NCI-H23 lung) [µM],GI50 (SF-268 CNS) [µM],GI50 (A498 renal) [µM],GI50 (IGROV1 ovarian) [µM]
CC(C)(C)OC(=O)CC(NC(=O)OC(C)(C)C)C(=O)Oc1ccc([N+](=O)[O-])cc1 (stereo not given),> 100 µM,> 100 µM,> 100,> 100,> 100,> 100,> 100,> 100 µM,> 100,> 100,,,,,,,,,
CC(=O)Oc1ccc2c3c1[C@@H]1O[C@@H]1c1cccc(c1-3)[C@@H]1O[C@H]21,> 100 µM,3.14 µM,5.04,4.47,2.02,6.57,3.07,,> 100,,0.65,2.75,,,,,,,
CCCC(=O)OC1=C(c2ccccc2)Sc2ccccc2-n2cccc21,> 10 µM,> 10 µM,> 10,> 10,> 10,,> 10,> 10 µM,> 10,> 10,,,,,,,,,
C=C(C)COC(=O)COCC(=O)OCC(=C)C,> 100 µM,> 100 µM,> 100,> 100,,> 100,> 100,> 100 µM,> 100,> 100,,,,,,,,,
CC(=O)NC1=CC(=O)C=C(Cl)C1=O,50.9 µM,> 100 µM,> 100,> 100,,> 100,> 100,> 100 µM,> 100,> 100,,,,,,,,,
COc1cc2c(cc1O)N=C[C@@H]1CCC(O)N1C2=O (mixture of isomers),2.69 µM,,6.25,17.9,0.974,0.928,11.7,4.38 µM,7.65,75.5,,,,,,,,,
C/C=C1/C(=O)O[C@]23C=C[C@@H]4C(C(=O)OC)=CO[C@H](O[C@@H]12)[C@@H]43,3.83 µM,,5.62,6.12,0.725,1.58,3.21,3.51 µM,2.31,4.88,,,,,,,,,
O=c1c2cc([N+](=O)[O-])cnc2sn1-c1ccc(Br)cc1,90.3 µM,> 100 µM,75.1,> 100,52.5,,,> 100 µM,> 100,> 100,,,,,,,,,
Cc1ccc2nnc(NS(=O)(=O)c3cc(C)c(Cl)cc3S)n2n1,> 100 µM,> 100 µM,> 100,> 100,> 100,> 100,> 100,,> 100,> 100,,,,,,,,,
CC(CNc1nc(Nc2ccc(Cl)c(Cl)c2)nc(C(Cl)(Cl)Cl)n1)N(C)C (stereo not given),3.78 µM,,,3.14,,,3.59,3.38 µM,3.32,,,1.75,1.72,1.7,1.7,1.63,,,
COc1cccc(-c2cc(=O)c3cc(N4CCCC4)ccc3[nH]2)c1,> 10 µM,> 10 µM,> 10,0.0111,0.00131,,> 10,0.0962 µM,> 10,> 10,,,,,,,,,
Cc1ccc(C(=O)N/N=C(\N=Nc2ccccc2)c2ccc(N(CCC#N)CCC#N)cc2C)cc1,> 100 µM,,61.7,> 100,> 100,> 100,> 100,> 100 µM,> 100,> 100,,,,,,,,,
CC1CC(c2ccc([N+](=O)[O-])cc2)=Nc2ccccc2S1=O (stereo not given),> 100 µM,,44.1,26.7,25.6,43.2,61.2,37.2 µM,42.1,31.8,,,,,,,,,
COc1cc(C2SC(N)=Nc3c2c(C)nn3C(=O)c2ccc(Cl)cc2)ccc1O (stereo not given),> 10 µM,> 10 µM,> 10,> 10,> 10,,> 10,> 10 µM,> 10,> 10,,,,,,,,,
O=c1cc(-c2cccc(Br)c2)[nH]c2cc3c(cc12)OCO3,> 100 µM,12.9 µM,24,25.4,17.4,13.8,,12.8 µM,> 100,11.8,,,,,,,,,
COc1ccc(-c2cc(-c3ccccc3)nc(N)n2)c(O)c1,> 100 µM,> 100 µM,> 100,> 100,> 100,> 100,,> 100 µM,> 100,> 100,,,,,,,,,
CC1(C)O[C@@H](CP(c2ccc3ccccc3c2)c2ccc3ccccc3c2)[C@H](CP(c2ccc3ccccc3c2)c2ccc3ccccc3c2)O1,> 100 µM,> 100 µM,> 100,> 100,> 100,,> 100,> 100 µM,> 100,> 100,,,,,,,,,
CCN1CCC(O)(/C=C/c2ccc(Cl)cc2)C(C(=O)/C=C/c2ccc(Cl)cc2)C1 (stereo not given),> 100 µM,43.3 µM,> 100,29.5,32.4,34.2,,45.6 µM,35.5,62.6,,,,,,,,,
COC(=O)/C=C/N1CC1,> 10 µM,> 10 µM,> 10,> 10,,,> 10,> 10 µM,> 10,6.15,,,,,,,,,
OCC1(CNc2cc(Cl)ncn2)CCC1,> 100 µM,> 100 µM,> 100,> 100,> 100,> 100,,> 100 µM,> 100,> 100,,,,,,,,,

Structure (SMILES),TGI (MOLT-4 leukemia),TGI (786-0 renal),TGI (SF-268 CNS) [µM],TGI (KM12 colon) [µM],TGI (LOX IMVI melanoma) [µM],TGI (A498 renal) [µM],TGI (CAKI-1 renal) [µM],TGI (NCI-H23 lung),TGI (UACC-257 melanoma) [µM],TGI (IGROV1 ovarian) [µM],GI50 (LOX IMVI melanoma) [µM],GI50 (UACC-257 melanoma) [µM],GI50 (MOLT-4 leukemia) [µM],GI50 (KM12 colon) [µM],GI50 (CAKI-1 renal) [µM],GI50 (NCI-H23 lung) [µM],GI50 (SF-268 CNS) [µM],GI50 (A498 renal) [µM],GI50 (IGROV1 ovarian) [µM]
CC(C)[Si](OC1=CCC[C@H]2NC(=O)[C@@H](Cc3ccc([N+](=O)[O-])cc3)[C@@]12C)(C(C)C)C(C)C,> 100 µM,17.8 µM,24.8,13.1,15.8,,26.2,18.6 µM,17.8,28.8,,,,,,,,,
C[C@]12CC[C@H]3[C@@H](CCC4=CC(=O)CC[C@@]43C)[C@@H]1CC[C@@H]2OC(=O)c1cccc2c(=O)c3ccccc3[nH]c12,89.2 µM,38.6 µM,> 100,> 100,62.1,> 100,,> 100 µM,> 100,> 100,,,,,,,,,
Cc1ccc(S(=O)(=O)NC(=O)NCC(=O)O)cc1,> 100 µM,> 100 µM,> 100,> 100,> 100,,,> 100 µM,> 100,> 100,,,,,,,,,
CC(C)(C)c1cc2c(O)c(c1)COCc1cc(C(C)(C)C)cc(c1O)COCc1cc(C(C)(C)C)cc(c1O)COC2,> 100 µM,> 100 µM,,> 100,> 100,> 100,,> 100 µM,> 100,> 100,,,,,,,,,
COc1ccc2oc3c(ccc[n+]3C)c(=O)c2c1,,,> 100,> 100,> 100,> 100,> 100,> 100 µM,,> 100,,,,,,,,,
CCCC(=O)Oc1cc(OC(=O)CCC)c2c(C)cc(=O)oc2c1,> 100 µM,> 100 µM,> 100,> 100,> 100,> 100,,> 100 µM,> 100,> 100,,,,,,,,,
N#CCCN(CCC#N)c1ccc(/C=C2\N=C(c3ccccc3)N(c3ccccc3)C2=O)cc1,> 100 µM,> 100 µM,,> 100,> 100,> 100,,,> 100,> 100,,,,,,,,,
Cc1cc2nc3c(C#N)c4c(c(Nc5ccc(Cl)cc5)n3c2cc1C)CCC4,> 100 µM,29.3 µM,33.6,> 100,32.8,> 100,41.4,57.2 µM,76.6,,,,,,,,,,
COc1ccc(/C=C/C(=O)/C=C(/C=C/c2ccc(OC)c(OC)c2OC)OB(F)F)c(OC)c1OC,4.74 µM,,> 100,5.08,2.4,10.2,,,> 100,> 100,0.721,9.33,0.425,2.09,,,2.93,3.35,1.89
CC(C)[C@H]1NC(=O)[C@H]2N=C(O[C@@H]2C)[C@@H]2CCCN2C(=O)[C@H](Cc2ccccc2)NC(=O)[C@@H]2COC(=N2)[C@@H](Cc2ccccc2)NC(=O)[C@@H]2COC1=N2,> 100 µM,> 100 µM,> 100,> 100,> 100,,> 100,> 100 µM,> 100,> 100,,,,,,,,,
C[Si](C)(C)C#CCOC=C1CC1,> 100 µM,> 100 µM,> 100,> 100,> 100,,> 100,> 100 µM,> 100,> 100,,,,,,,,,
CC(C)(C)OC(=O)NCCCCC(NC(=O)C(Cc1c[nH]c2ccccc12)NC(=O)OCC1c2ccccc2-c2ccccc21)C(=O)O (stereo not given) (Fmoc-Trp-Lys(Boc)-OH; configuration not given here),48.2 µM,> 100 µM,> 100,> 100,46.2,,31.5,> 100 µM,> 100,> 100,,,,,,,,,
O=C(NC(Cc1ccccc1)P(=O)(O)c1ccccc1)OCc1ccccc1 (stereo not given),> 100 µM,> 100 µM,> 100,> 100,> 100,,> 100,> 100 µM,> 100,> 100,,,,,,,,,
"CCC(C)C1NC(=O)C(NC(=O)c2c3nc4c(C(=O)NC5C(=O)NC(C(C)C)C(=O)N6CCCC6C(=O)N(C)CC(=O)N(C)C(C(C)C)C(=O)OC5C)ccc(C)c4oc-3c(C)c(=O)c2N)C(C)OC(=O)C(C(C)C)N(C)C(=O)CN(C)C(=O)C2CCCN2C1=O (stereo not given) (I: TIP[Sar][NMeV] / II: TVP[Sar][NMeV]; ester I:1-I:C, II:1-II:C; linker I:N-II:N via Actinocin(1to9); configuration not given here)",0.0667 µM and 0.0163 µM,0.141 µM and 0.669 µM,,0.191,,0.00433,,0.0553 µM and 0.0126 µM,0.0266,0.906,,,,,,,,,
CC1CC/C(=C\c2ccc(F)cc2)C2=C1C(c1ccc(F)cc1)n1c(s/c(=C\c3ccc(Cl)cc3)c1=O)=N2 (stereo not given),> 100 µM,> 100 µM,> 100,> 100,> 100,> 100,> 100,,> 100,> 100,,,,,,,,,
CCOC(=O)c1c(CN2CCOCC2)n(Cc2ccccc2)c2c1cc(O)c1nc(C)c(C)nc12,> 100 µM,68.7 µM,54.4,> 100,> 100,55.3,64.9,> 100 µM,> 100,,,,,,,,,,
CC(=O)Nc1nc(C)c(-c2cc3c(c(S(C)(=O)=O)c2)C(=O)N([C@@H](C)C2CC2)C3)s1,> 100 µM,,> 100,> 100,> 100,53.5,55.4,> 100 µM,> 100,> 100,29.1,37.7,29.3,85,17.6,31.1,20.4,19,27.2
COc1ccc(-c2c(C#N)cnc(N)c2-c2nc3cc(C)c(C)cc3[nH]2)cc1,> 100 µM,,65.7,> 100,> 100,63.6,> 100,33.3 µM,> 100,> 100,5.74,52,> 100,3.47,14.6,5.37,9.8,10.7,16
CCOC(=O)/C=C1\C[C@H](NC(=O)OCc2ccccc2)C(=O)N1CC(=O)OCC,> 100 µM,> 100 µM,> 100,> 100,,> 100,> 100,> 100 µM,> 100,> 100,,,,,,,,,
CCc1ncc(C(C)(O)c2ccccc2)n1Cc1ccccc1 (stereo not given),65.1 µM,,> 100,> 100,94,,> 100,> 100 µM,> 100,> 100,,,,,,,,,
